The values below are quoted from earlier work in US20240041861A1, “COMPOSITIONS AND METHODS FOR TREATMENT AND PROPHYLAXIS OF VIRAL INFECTIONS” (priority 2020, published 2024).

Converted amounts (≈) assume the structure as drawn. Where two headings read alike, the source gives them in different places.

The target of one data set is PDE5 (Homo sapiens, UniProt O76074).
For data set [1] the following is noted: in vivo.
The conditions of data set [2]: human, in vivo.
Assay in data set [3]: not given
The source holds these as a separate data set.

The conditions of data set [4]: in vivo. The source holds these as a separate data set.
Assay in data set [5]: not given
This is another data set of the same source.

For the compound `CCCc1nn(C)c2c(=O)[nH]c(-c3cc(S(=O)(=O)N4CCNCC4)ccc3OCC)nc12` [N-desmethyl metabolite], the “bound to plasma proteins” value is recorded as “approximately 96%”. In addition, the “in vitro potency for PDE5 relative to the parent drug” value at PDE5 was “approximately 50%”. The terminal half lives entry in [1] was “about 4 hours”.
The term IC50 denotes the midpoint of a concentration-inhibition curve. What is called EC50 is the concentration at which the effect is half-maximal. For the compound `CC(C)(C)OC(=O)N[C@H]1CCCCC/C=C\[C@@H]2C[C@@]2(C(=O)NS(=O)(=O)C2CC2)NC(=O)[C@@H]2C[C@@H](OC(=O)N3Cc4cccc(F)c4C3)CN2C1=O` [Danoprevir], the IC50 in the data set with NS3/4A HCV protease GT1b was 0.2 to 0.4 nM. In addition, in the data set on replicon GT1b, the EC50 was 1.6 nM.
With `CC(C)c1nc(CN(C)C(=O)N[C@H](C(=O)N[C@@H](Cc2ccccc2)C[C@H](O)[C@H](Cc2ccccc2)NC(=O)OCc2cncs2)C(C)C)cs1` [ritonavir], in data set [2], the “plasma levels relative to those obtained after the ritonavir dose of 600 mg twice daily” value is “less than 7%”.
As a reminder, the solubility is how much of the substance goes into solution per volume. Take `CC(C)Nc1cccnc1N1CCN(C(=O)c2cc3cc(NS(C)(=O)=O)ccc3[nH]2)CC1` [delavirdine free base]: the solubility was 2940 µg/mL (≈ 6440 µM) in data set [3] (pH 1), 295 µg/mL (≈ 646 µM) in data set [3] (pH 2) and 0.81 µg/mL (≈ 1.77 µM) in data set [3] (pH 7.4).
On to `CCCc1nn(C)c2c(=O)[nH]c(-c3cc(S(=O)(=O)N4CCN(C)CC4)ccc3OCC)nc12` [sildenafil], for which the “bound to plasma proteins” value is listed as “approximately 96%”. For the same compound, in [1], the “mean steady state volume of distribution (Vss)” value is reported as 105 L and the terminal half lives result is given as “about 4 hours”.
For orientation: half-life means how long it takes for the measured level to halve. With `CCN(CCO)CCCC(C)Nc1ccnc2cc(Cl)ccc12` (centres unmarked) [hydroxychloroquine], in [4], the “fraction of the dose absorbed” value is listed as 30-100% and the “renal clearance of unchanged drug” value was 16-30%. In addition, in data set [4] (po), the absorption half-life is 0.12 to 0.17 days, the terminal half-life was 40 to 50 days and the “time of peak plasma levels” value is 3 to 4 h. In data set [5] (in vivo), the half-life result is on record as “about 40 days” and the “mean fraction of the dose absorbed” value is 0.74. The “dose excreted as the parent drug in urine” value in [5] (in vivo, po) is on record as “approximately 10%”. Moreover, the half-life in data set [5] (in vivo, po, 200 mg) was 22.4 days. Also, the “mean peak blood concentration” value in data set [5] (single 200 mg oral dose of PLAQUENIL, healthy males, blood) is listed as 129.6 ng/mL. For the same compound, the half-life in [5] (single 200 mg oral dose, healthy males, plasma) is 123.5 days.
